Entries after “also recorded” stand apart in the source; their conditions may differ. Like-named read-outs stand apart in the source and are kept apart here.
Experiments:
[1] = slurried in deionised water, ambient temperature, ca. 24 hrs
[2] = Forced degradation studies (Example 7)
[3] = H2O/acetone, ca. 12 hrs
[4] = at 90% RH, 25° C.; listed as salt from diethylamine
[5] = Hydrolytic (humidity), 55° C./75% RH, solid state, 8 days
[6] = Hydrolytic (humidity), 55° C./75% RH, solid state, 14 days
[7] = Hydrolytic, Acid, 1N HCl, 55° C., 8 days
[8] = Hydrolytic, Acid, 1N HCl, 55° C., 14 days
[9] = Hydrolytic, Base, 1N NaOH, 55° C., 8 days
[10] = Hydrolytic, Base, 1N NaOH, 55° C., 14 days
[11] = Oxidative, 3% H2O2, ambient temperature, 8 days
[12] = Photolytic Control (dark control in photochamber), 2X ICH
[13] = Photolytic Control (dark control in photochamber), 3X ICH
[14] = Photolytic, photochamber 25° C., solid state, 2X ICH
[15] = Photolytic, photochamber 25° C., solid state, 3X ICH
[16] = Solution Control (water, 55° C.), 8 days
[17] = Solution Control (water, 55° C.), 14 days
[18] = Solution Control (water, ambient), 8 days
[19] = Solution Control (water, ambient), 14 days
[20] = Thermolytic, 85° C., ambient humidity, solid state, 8 days
[21] = Thermolytic, 85° C., ambient humidity, solid state, 14 days

sulfasalazine diethylamine (1:1) salt [Diethylamine Salt]
Salt disproportionation, XRPD [1]: Small change
% Change [2, 5]: 0.11%
Area % (main band) [2, 5]: 98.97%
% Change [2, 6]: −0.02%
Area % (main band) [2, 6]: 99.10%
degradation observed ([2]; Hydrolytic (humidity), 75% RH, 55° C., 14 days): Minimal degradation
Peak Purity ([2]; Hydrolytic (humidity), 14 days): Pass
% Change [2, 7]: −0.19%
Area % (main band) [2, 7]: 99.03%
% Change [2, 8]: −0.25%
Area % (main band) [2, 8]: 98.93%
degradation observed [2, 8]: Minimal degradation
Peak Purity ([2]; Hydrolytic, Acid, 14 days): Pass
% Change [2, 9]: −0.19%
Area % (main band) [2, 9]: 99.03%
% Change [2, 10]: −0.25%
Area % (main band) [2, 10]: 98.93%
degradation observed [2, 10]: Minimal degradation
Peak Purity ([2]; Hydrolytic, Base, 14 days): Pass
% Change [2, 11]: 1.36%
Area % (main band) [2, 11]: 97.52%
Area % (main band) ([2]; Oxidative, 3% H2O2, ambient temperature, 14 days): 97.30%
Peak Purity ([2]; Oxidative, 14 days): Pass
% Change [2, 12]: −0.05%
Area % (main band) [2, 12]: 99.13%
% Change [2, 13]: −0.05%
Area % (main band) [2, 13]: 99.13%
Peak Purity ([2]; Photolytic, 3X ICH): Pass
degradation observed ([2]; Photolytic, 3× ICH exposure): Minimal degradation
% Change [2, 14]: 0.42%
Area % (main band) [2, 14]: 98.71%
% Change [2, 15]: 0.10%
Area % (main band) [2, 15]: 99.03%
Area % (main band) ([2]; Solid Control (unstressed), 0 days): 99.08%
% Change [2, 16]: 0.24%
Area % (main band) [2, 16]: 98.84%
% Change [2, 17]: 0.39%
Area % (main band) [2, 17]: 98.69%
% Change [2, 18]: 0.20%
Area % (main band) [2, 18]: 98.88%
% Change [2, 19]: 0.20%
Area % (main band) [2, 19]: 98.88%
degradation observed ([2]; Thermolytic, 80° C., 14 days): Minimal degradation
% Change [2, 20]: 0.12%
Area % (main band) [2, 20]: 98.96%
% Change [2, 21]: 0.05%
Area % (main band) [2, 21]: 99.03%
Peak Purity ([2]; Thermolytic, 14 days): Pass
Hydration studies, XRPD ([3]; High water activity (0.790)): no solid could be obtained
Hydration studies, XRPD ([3]; Low water activity (0.281)): slight changes; also recorded: Small change
Hydration studies, XRPD ([3]; Medium water activity (0.572)): slight changes; also recorded: Small change
DVS mass uptake [4]: 1.0%

From patent publication US20200392084A1 (priority 2017, published 2020)
